Data: patent US20210186930A1, “Methods of Treating Renal Disease Associated With Chronic Kidney Disease Such as Alport Syndrome” (UNIVERSITY OF MIAMI, priority 2018, published 2021)
Entries after “also recorded” stand apart in the source; their conditions may differ.

Columns and labels:
Col4a3 knockout mice [1] = assay: Fibrosis, lipid droplets, serum and kidney cortex lipids, CD36 in Col4a3 knockout mice treated with ezetimibe (FIG. 4); type: in vivo, mouse
Description: Determination of cholesterol content in kidney cortex: Tissue from kidney cortexes was homogenized in hypotonic buffer (10 mM HEPES pH7.0, 15 mM KCl, 1 mM MgCl2, 10 mM phosphatase inhibitors). Lipids from 100 μl of the homogenate were extracted with 1 ml of hexane:isopropanol (3:2, v/v), dried and reconstituted in 100 μl of isopropanol-NP40 (9:1, v/v). Tissue fractions not soluble in the organic solvent, were further dried, reconstituted in 8 M urea, and assayed for protein concentration using Pierce BCA protein assay kit (ThermoFisher Scientific, MA, USA). Total cholesterol from lipid extracts was determined by the enzymatic method as previously described (Robinet, P., Wang, Z., Hazen, S. L. & Smith, J. D. A simple and sensitive enzymatic method for cholesterol quantification in macrophages and foam cells. Journal of lipid research 51, 3364-3369, 2010). Briefly, endogenous peroxides present were eliminated by incubating samples and standards with catalase (Sigma-Aldrich, MO, USA), 45 U/ml final concentration, for 15 min at 37° C. Then, 50 μl of samples and standards were mixed with 50 μl of reagent A (2 U/ml cholesterol oxidase (Sigma-Aldrich, MO, USA), 0.6 U/ml cholesterol esterase (MP Biomedicals), 2 U/ml HRP (Sigma), 100 μM Amplex Red (ThermoFisher Scientific, MA, USA) in black 96-well plates. The plates were incubated at 37° C. for 30 min and fluorescence was read at 530 nm (Ex) and 580 nm (Em) in a plate reader (SpectraMax M5, Molecular Devices, CA, USA). Cholesteryl esters (CE) quantification was based on the method described from Toshimi M, et al. Briefly, 25 μl of samples was mixed with 150 μl of free cholesterol decomposition reagent (45 U/ml catalase, 1 U/ml cholesterol oxidase) and incubated 2-4 h at 37° C., and then the final volume was brought up to 250 μl prior to determining free and total cholesterol remaining. Total cholesterol remaining was determined by mixing 50 μl of end product reaction with 50 μl of reagent A, as described above. Free cholesterol remaining was determined similarly, but without including cholesterol esterase in the reagent. CE was calculated by the formula CE=(TC−FC)×DF, where TC is the total cholesterol remaining, FC the free cholesterol remaining and DF the dilution factor, in this case, 10.
Lipid content: Oil Red 0 staining was performed on frozen tissue sections and triglyceride content was determined on snap frozen kidney tissue as described above.
(§1) Mouse models: Mice in which exon 5 of a3 chain of collagen type IV is deleted (Col4a3 KO) were obtained from the Jackson Laboratory (#002908, 129-Col4a3tm1Dec/J). Col4a3 heterozygous littermates were bred to generate Col4a3 KO mice. Four groups of mice with n=3-10 per group were studied. The four groups consisted of: 1) wildtype controls+vehicle, 2) wildtype controls+ezetimibe, 3) Col4a3 KO+vehicle, 4) Col4a3 KO+ezetimibe. ezetimibe was administered by oral gavage daily starting at 4 weeks of age at a concentration of 5 mg/kg body weight. […] Mice were sacrificed at 8 weeks of age when progression to end-stage renal failure had occurred.
(§2) Serology: Immediately prior to sacrifice, a blood sample was collected for the determination of BUN and lipid panel analysis in the comparative laboratory core facility of the University of Miami. Serum creatinine was determined by tandem mass spectrometry (UAB-UCSD O'Brien Core Center, University of Alabama).
Picrosirius red staining: Paraffin-embedded sections (4 μm thick) were deparaffinized with xylene and a graded alcohol series. Sections were rinsed for 5 min in distilled water, stained for 1 hour with picrosirius red in saturated aqueous picric acid, examined under a light microscope and photomicrographs were taken. Histological images were visualized using a light microscope (Olympus BX 41, Tokyo, Japan) at 40× magnification and analyzed using Image J software.

Col4a3 knockout mice [2] = assay: Renal function and body weight in Col4a3 knockout mice treated with ezetimibe (FIG. 3); type: in vivo, mouse
Description: as §1
Albumin/creatinine ratio: All albuminuria values are expressed as μg albumin/mg creatinine. Albumin/creatinine determined by ELISA (Bethyl Laboratories) for albumin detection and a biochemical assay based on the Jaffe method for creatinine detection (Stanbio) as previously described.
as §2

[3] = cited from earlier work
Col4a3−/− mice = assay: Renal function in Col4a3-/- mice treated with ezetimibe, ramipril or both (Example 1, FIG. 5); type: in vivo, mouse; conditions: vs untreated Col4a3−/−
Source text: Albumin/creatinine ratio: All albuminuria values are expressed as μg albumin/mg creatinine. Albumin/creatinine determined by ELISA (Bethyl Laboratories) for albumin detection and a biochemical assay based on the Jaffe method for creatinine detection (Stanbio) as previously described. Serology: Immediately prior to sacrifice, a blood sample was collected for the determination of BUN and lipid panel analysis in the comparative laboratory core facility of the University of Miami. Serum creatinine was determined by tandem mass spectrometry (UAB-UCSD O'Brien Core Center, University of Alabama). The following experiment was performed to investigate which treatment, ezetimibe (EZ), ramipril (Ramp) or the combination of both drugs (EZ+Ramp), would best preserve renal function in Col4a3 knockout mice, all drugs were administered to 4-week-old Col4a3−/− mice for 4 weeks as follows: ezetimibe (Ez) was orally administered at a concentration of 5 mg/kg BW, ramipril was added to the drinking water at a concentration that would lead to a daily ramipril uptake of 10 mg/kg BW. All mice were sacrificed at 8 weeks of age. The following four groups of mice were analyzed: Col4a3^+/+, Col4a3^−/−+Ez, Col4a3^−/−+Ramp and Col4a3^−/−+Ez+Ramp.

[4] = Col4a3 knockout mice, ezetimibe treated vs untreated
[5] = ezetimibe 5 mg/kg oral gavage daily, sacrifice at 8 weeks
[6] = Col4a3−/− mice treated 4 weeks, ezetimibe 5 mg/kg, ramipril 10 mg/kg

Q: Which results are given for `O=C1[C@H](CC[C@H](O)c2ccc(F)cc2)[C@@H](c2ccc(O)cc2)N1c1ccc(F)cc1` [ezetimibe]?
A: total cholesterol levels in kidney cortexes (Col4a3 knockout mice [1]; Col4a3 knockout mice, ezetimibe treated or untreated): No change in total cholesterol levels; fibrosis (PicroSirius Red staining) (Col4a3 knockout mice [1]; [4]): significant reduction of fibrosis; glomerular lipid droplets (Oil Red O staining) (Col4a3 knockout mice [1]; [4]): significant reduction of glomerular lipid droplets; serum triglyceride levels (Col4a3 knockout mice [1]; [4]): significantly decreased; total serum cholesterol levels (Col4a3 knockout mice [1]; [4]): significantly decreased; triglyceride content in kidney cortexes (Col4a3 knockout mice [1]; [4]): significantly reduces triglyceride content; CD36 expression (Col4a3 knockout mice [1]; ezetimibe treated Col4a3 knockout mice (untreated knockout also increased)): significantly increased; ratio of esterified to total cholesterol in kidney cortexes (Col4a3 knockout mice [1]; ezetimibe treated Col4a3 knockout mice compared to controls (untreated knockout also increased)): significantly increased; body weight (Col4a3 knockout mice [2]; ezetimibe 5 mg/kg oral gavage daily): prevents body weight loss; albumin/creatinine ratio (Col4a3 knockout mice [2]; ezetimibe 5 mg/kg oral gavage daily from 4 weeks of age, vs untreated Col4a3 knockout mice): significant reduction in the albumin/creatinine ratio; serum BUN levels (Col4a3 knockout mice [2]; [5]): prevents increases in serum BUN levels; serum creatinine levels (Col4a3 knockout mice [2]; [5]): significantly reduces serum creatinine levels; solubility in ethanol, methanol, and acetone [3]: freely to very soluble; solubility in water [3]: practically insoluble; albumin/creatinine ratio (ACR) (Col4a3−/− mice; 4-week-old Col4a3−/− mice treated 4 weeks, ezetimibe 5 mg/kg BW oral, ramipril 10 mg/kg BW in drinking water): significant reduction in the albumin/creatinine ratio; also recorded: significant decrease in the albumin/creatinine ratio; serum BUN levels (Col4a3−/− mice; [6]): significant reduction in the serum BUN levels; serum creatinine levels (Col4a3−/− mice; [6]): significant reduction in the serum creatinine levels
